Data reported in patent US9018374B2, “Crystal of amide compound” (Takeda Pharmaceutical Company Limited, priority 2010, dated 2015).
Entries after “also recorded” stand apart in the source; their conditions may differ.

Experiments:
[1] = Moisture adsorption analysis; type: physicochemical; details: 25° C., hydrochloride
Description: Moisture adsorption of type A crystal and type B crystal was automatically analyzed by VTI Symmetrical Gravimetric Analyzer in step-isothermal mode (SGA-100 for type A crystal, SGA-CX for type B crystal). Samples were exposed various relative humidities (RH) at 25° C. The weight of the samples at each relative humidity was recorded after equilibrium (weight change of less than 0.02% within 10 min).

Slurry interconversion = type: physicochemical; details: for crystal form 1 day later: 20 mg in 0.2 mL isopropyl alcohol, slurry at ambient temperature, powder X-ray diffraction, hydrochloride
Description: Type A crystal, type B crystal, and a mixture (1:1) of type A crystal and type B crystal (each 20 mg) were measured in vials, and isopropyl alcohol (0.2 mL) was added to give suspension containing excess solids remaining therein. The vial was sealed, and shaken on a slurry wheel at ambient temperature for 1 day at steady rotation. Thereafter, the solids were collected by filtration.

Dissolution test = details: room temperature (25° C.)
Description: To type A crystal and type B crystal (each 50 mg) were added 2-butanone, ethyl acetate, toluene, n-heptane and tert-butylmethylether (each 5 mL), and the dissolution property was measured using a powder suspension (25° C., 2 hr). The suspension was centrifuged, the supernatant was filtered with a filter (pore size 0.22 μm), and the solvent was evaporated from the filtrate under a nitrogen atmosphere. The residue obtained by evaporation was dissolved in a mixed solution of 50 mM aqueous ammonium acetate solution/acetonitrile (1:1), and measured by HPLC.

| Compound | level (%) of weight change ([1]; relative humidity 30% RH) [%] | level (%) of weight change ([1]; relative humidity 50% RH) [%] | level (%) of weight change ([1]; relative humidity 70% RH) [%] | crystal form 1 day later (Slurry interconversion) | thermodynamic stability as compared to type A crystal (from dissolution test) (Dissolution test) | thermodynamic stability as compared to type A crystal (from slurry experiment) (Slurry interconversion; ambient temperature) |
| --- | --- | --- | --- | --- | --- | --- |
| COCCCCn1c(C(=O)N(CC(C)C)[C@@H]2CNC[C@H](C(=O)N3CCOCC3)C2)nc2ccccc21.Cl [type A crystal, 1-(4-methoxybutyl)-N-(2-methylpropyl)-N-[(3S,5R)-5-(morpholin-4-ylcarbonyl)piperidin-3-yl]-1H-benzimidazole-2-carboxamide hydrochloride, reference compound] | −0.1 | 0.0 | 7.6 | convert to type B crystal |  |  |
| COCCCCn1c(C(=O)N(CC(C)C)[C@@H]2CNC[C@H](C(=O)N3CCOCC3)C2)nc2ccccc21.Cl [type B crystal, 1-(4-methoxybutyl)-N-(2-methylpropyl)-N-[(3S,5R)-5-(morpholin-4-ylcarbonyl)piperidin-3-yl]-1H-benzimidazole-2-carboxamide hydrochloride] | 0.0 | 0.5 | 0.9 | no change; also recorded: type B | thermodynamically stable | thermodynamically stable |
